test system: PrP^C in N2a-cl3 neuroblastoma cells that overexpress PrP^C; assay type: cell-based, mouse; settings: values not given

Row | Compound | Potency (EC50 by ELISA) in N2a-cl3 cells, in words
1 | COc1cc(OC)cc(C(=O)Nc2ccc(I)cn2)c1 [IND85671] | potent
2 | NC(=O)c1ccccc1NC(=O)c1cccnc1N1CCCCC1 [IND87406] | potent
3 | CCOC(=O)c1[nH]c2c(c1C)C(=O)CC(c1ccco1)C2 (stereo not drawn) [IND87564] | potent

— publication PMC3984052 (Bioorganic & medicinal chemistry, 2014)
